Experimental data reported in EP1510220B1 (priority 1993, dated 1994).

Columns and labels:
[1] = system: Rat adventitial fibroblasts; assay: Proliferation of adventitial fibroblasts; assay type: cell-based
Experimental: Rat adventitial fibroblasts were cultured as described in Grainger et al., Biochem. J., 283: 403-408, 1992. Briefly, the aortae were treated with collagenase (3 mg/ml) for 30 minutes at 37°C. The tunica adventitia was stripped away from the media. The adventitia was dispersed for 2 hours in elastase (1 mg/ml) and collagenase (3 mg/ml) dissolved in medium M199 (available from ICN/Flow). The cells were then spun out (900 x g, 3 minutes), resuspended in DMEM + 10% FCS and plated out at 8 x 10^4 cells/cm^2 on tissue culture plastic. When the cells reached confluence (after about 10 days), they were subcultured as described for vascular smooth muscle cells. Adventitial fibroblasts were subcultured every 3 days at 1:3 dilution and used between passages 3 and 9.
Cells were prepared for counting by hemocytometer from triplicate culture dishes as described in Grainger et al., Biochem. J., 277:145-151, 1991. Cells were also counted by direct microscopic observation of gridded culture dishes. The grids were scored into the plastic on the inner surface, so that the cells could not migrate into or out of the area being counted during the experiment. Cells in each of four squares in two separate wells were counted at each time point. All cell counting experiments were repeated on at least three separate cultures.

TGF-beta = TGF-beta activity in medium conditioned on rat vascular smooth muscle cells (MvLu cell assay); assay type: cell-based; details: cells treated for 96 hours in 10% FCS
Experimental: Assays for TGF-Beta. The TGF-beta activity present in medium conditioned on various cells was determined by DNA synthesis assay on mink lung […] (MvLu) cells; a modification of the assay described in Danielpour et al., J. Cell. Physiol., 138: 79-83, 1989. MvLu cells were subcultured at 1:5 dilution in DMEM + 10% FCS. After 24 hours, the medium was replaced with the conditioned medium to be tested in the absence or presence of the neutralizing antiserum to TGF-beta at 10 micrograms/ml. DNA synthesis during a 1 hour pulse of [^3H]-thymidine (5 microcuries/ml) was determined 23 hours after addition of the test medium. TGF-beta activity was calculated as the proportion of the inhibition of DNA synthesis which was reversed in the presence of neutralizing antibody, using a standard curve to convert the inhibition values into quantities of TGF-beta. The TGF-beta1 standards and conditioned media both contained 10% FCS in DMEM.

CC/C(=C(\c1ccccc1)c1ccc(OCCN(C)C)cc1)c1ccccc1 [tamoxifen, trans-2-[4-(1,2-diphenyl-1-butenyl)phenoxy]-N,N-dimethylethylamine]
rate of proliferation of subcultured adventitial fibroblasts ([1]; concentrations of up to 50 micromolar): did not reduce the rate of proliferation | ED50 lower for vascular smooth muscle cells than for adventitial fibroblasts ([1]; selectivity, vascular smooth muscle cells vs adventitial fibroblasts): at least 10 fold | increase of TGF-beta activity in the medium (TGF-beta): > 50 fold
